The values below are quoted from earlier work in patent US12590297B2, “Differentiation method” (Koninklijke Nederlandse Akademie Van Wetenschappen, priority 2016, dated 2026).

SMILES strings stand for the structures. Some results are limits rather than exact numbers.

The target in one series is T1, glucocorticoid receptor (Homo sapiens, UniProt P04150).
T1 sequence (P04150 1-777): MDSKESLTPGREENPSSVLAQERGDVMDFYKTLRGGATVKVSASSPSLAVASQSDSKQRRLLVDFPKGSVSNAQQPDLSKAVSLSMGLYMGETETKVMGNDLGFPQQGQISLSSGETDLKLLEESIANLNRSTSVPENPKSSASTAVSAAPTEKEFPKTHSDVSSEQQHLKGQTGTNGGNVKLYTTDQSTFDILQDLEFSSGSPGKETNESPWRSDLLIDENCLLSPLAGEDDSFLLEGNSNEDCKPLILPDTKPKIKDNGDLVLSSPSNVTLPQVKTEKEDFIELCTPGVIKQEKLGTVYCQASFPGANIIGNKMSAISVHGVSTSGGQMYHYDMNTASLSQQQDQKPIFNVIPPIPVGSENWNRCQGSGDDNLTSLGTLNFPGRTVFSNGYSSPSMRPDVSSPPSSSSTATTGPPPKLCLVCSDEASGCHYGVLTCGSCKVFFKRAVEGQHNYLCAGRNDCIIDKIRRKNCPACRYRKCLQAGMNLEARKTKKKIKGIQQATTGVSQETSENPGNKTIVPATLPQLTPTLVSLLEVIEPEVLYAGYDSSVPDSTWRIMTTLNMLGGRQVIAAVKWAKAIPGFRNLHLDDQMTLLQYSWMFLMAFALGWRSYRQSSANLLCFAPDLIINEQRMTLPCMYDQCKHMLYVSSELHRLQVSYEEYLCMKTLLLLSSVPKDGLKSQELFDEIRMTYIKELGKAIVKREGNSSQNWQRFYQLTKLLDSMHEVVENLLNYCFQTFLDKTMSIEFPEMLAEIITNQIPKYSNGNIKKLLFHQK
As to conditions: in comparison to cortisol; oral dosing; cited from earlier work.

The target of another series is T2, ALK5 (TGF-βR1) (Homo sapiens, UniProt P36897).
T2 sequence (P36897 34-503): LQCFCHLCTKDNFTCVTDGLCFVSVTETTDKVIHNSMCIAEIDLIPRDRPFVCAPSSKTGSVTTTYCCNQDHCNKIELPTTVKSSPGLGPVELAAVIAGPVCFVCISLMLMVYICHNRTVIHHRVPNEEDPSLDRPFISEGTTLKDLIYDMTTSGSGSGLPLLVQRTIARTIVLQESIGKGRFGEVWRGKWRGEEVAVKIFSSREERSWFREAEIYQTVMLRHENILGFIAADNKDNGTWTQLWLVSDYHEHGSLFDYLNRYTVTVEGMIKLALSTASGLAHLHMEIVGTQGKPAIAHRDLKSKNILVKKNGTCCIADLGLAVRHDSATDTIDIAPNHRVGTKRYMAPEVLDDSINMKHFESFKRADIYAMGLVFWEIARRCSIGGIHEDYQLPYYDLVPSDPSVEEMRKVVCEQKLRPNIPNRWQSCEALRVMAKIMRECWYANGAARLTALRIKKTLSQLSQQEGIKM
As to conditions: high concentrations; p38 MAP kinase inhibitor; cited from earlier work.

In the case of `C[C@]12CCC(=O)C=C1CC[C@@H]1[C@@H]2[C@@H](O)C[C@@]2(C)[C@H]1CC[C@]2(O)C(=O)CO` [Cortisol (hydrocortisone), Cortisol], at glucocorticoid receptor, the Glucocorticoid potency was 1.
Consider `C[C@]12CCC(=O)C=C1CC[C@@H]1[C@@H]2C(=O)C[C@@]2(C)[C@H]1CC[C@]2(O)C(=O)CO` [Cortisone], for which the Glucocorticoid potency at glucocorticoid receptor is 0.8.
In the case of `C[C@]12C=CC(=O)C=C1CC[C@@H]1[C@@H]2[C@@H](O)C[C@@]2(C)[C@H]1CC[C@]2(O)C(=O)CO` [Prednisolone], the Glucocorticoid potency on glucocorticoid receptor is recorded as 4.
As for `C[S+]([O-])c1ccc(-c2nc(-c3ccc(F)cc3)c(-c3ccncc3)[nH]2)cc1` (centres unmarked) [SB-203580], at ALK5 (TGF-βR1), the “concentration at which thought to inhibit ALK5” value was no less than 10 µM.
`C[C@]12C=CC(=O)C=C1CC[C@H]1[C@@H]3C[C@@H](O)[C@](O)(C(=O)CO)[C@@]3(C)C[C@H](O)[C@@]12F` [Triamcinolone]: the Glucocorticoid potency on glucocorticoid receptor is given as 5.
